Key:
Assay type in all cases: in vivo
[1] = test system: human prostate cancer cell line LNCaP xenografts; assay: LNCaP xenograft growth inhibition in nude mice; settings: 20 mg/kg b.w. i.p. once daily
Experimental: (§1) All the procedures related to animal handling, care, and the treatment in the study were performed following guidelines approved by an Institutional Animal Care and Use Committee (IACUC) of Crown Bioscience, Inc. (Santa Clara, Calif., USA, a contract research organization we hired) based on the guidance of the Association for Assessment and Accreditation of Laboratory Animal Care (AAALAC). Animals were checked for any effects of tumor growth and drug treatment on normal behavior such as mobility, food and water consumption, body weight gain/loss (gross body weights were measured twice weekly), eye/hair matting, and any other abnormal effect. Death and observed clinical signs were recorded on the basis of the number of animals within each group. Individual animals with a tumor volume exceeding 3,000 mm^3 or animals of a group with a mean tumor volume exceeding 2,000 mm^3 were euthanized. In addition, animals showing signs of severe distress and/or pain, dropping body weight more than 20% from that at the start of treatment, or losing the capability of accessing adequate food or water were humanely sacrificed.
The human prostate cancer cell line LNCaP (ATCC, American Type Culture Collection, Manassas, Va., USA) were maintained in vitro as monolayer culture in RPMI-1640 medium supplemented with 10% fetal bovine serum (FBS), 100 U/ml penicillin, 100 μg/ml streptomycin, and 2 mM L-glutamine at 37° C. in an atmosphere of 5% CO2 in air. The tumor cells were routinely subcultured twice a week. The cells growing in an exponential phase were harvested and counted for tumor inoculation.
(§2) Each mouse was inoculated subcutaneously at the right flank with the LNCaP cells (1×10^7) in 0.1 ml of PBS for tumor development. When a mean tumor volume reached around 150 mm^3, the tumor-bearing mice were divided into homogeneous blocks based on their tumor volumes followed by a randomization of mice in each block into treatment groups (thus minimizing variations in tumor response to treatments due to the differential in initial mean tumor volumes). Each treatment group was consisted of 8 tumor-bearing mice. Vehicle (DMSO) or ITE in the vehicle at specified doses were administered to the mice by either i.p. (intraperitoneal) or p.o. (oral) injection once or twice daily for 28 continuous days as indicated.
(§3) Tumor volume was measured twice weekly in two dimensions using a caliper and the volume was calculated with a formula of: V=0.5 a×b^2, where a and b are the long and short diameter (in mm) of a tumor, respectively. The tumor volume was then used for calculations of both TGI (Tumor Growth Inhibition) and TGD (Tumor Growth Delay). The TGI was determined by: TGI=ΔT/ΔC×100%, where ΔT was a difference between the mean tumor volume at a specified day of observation and that at the day treatment starts (day 1) for a drug treated group whereas ΔC was the same difference measured for the control group. The TGD was calculated as: TGD=T−C, where T was the time (in days) required for tumors in a drug treated group to reach a predetermined mean tumor volume and C the time (in days) in the control group to reach the same volume. A tumor weight was derived by equating 1,000 mm^3 in volume to 1,000 mg in weight. A net body weight was then derived by subtracting a tumor weight from a corresponding gross body weight with the tumor.
(§4) Summary statistics, including mean and the standard error of the mean (SEM), are provided for the tumor volume of each group at each time point. Statistical analysis of difference in tumor volume among groups was conducted on a data set either at the best therapeutic time point or at the final dosing day as indicated. The tumor volume data were log-transformed and evaluated using a one-way ANOVA followed by Tukey's test when significance was observed. All data were analyzed using SPSS 16.0 and p<0.05 was considered to be statistically significant.

[2] = test system: human liver cancer cell line HepG2 xenografts; assay: HepG2 xenograft growth inhibition in nude mice
Experimental: as §1, §2, §3, §4
(§5) The culture and inoculation of human prostate cancer cell line LNCaP were as described in Example 1. The manipulation for human liver cancer cell line HepG2 (ATCC) was similar as that for LNCaP except that DMEM (instead of RPMI-1640) medium was used, the L-glutamine was not used, and 2×10^6 cells were used for inoculation into female nude mice. The handling of human ovarian cancer cell line OVCAR-3 (ATCC) was the same as that of LNCaP except that the DMEM medium was used and 5×10^6 cells were used for inoculation into female nude mice. […]

[3] = test system: human ovarian cancer cell line OVCAR-3 xenografts; assay: OVCAR-3 xenograft growth inhibition in nude mice
Experimental: as §1, §2, §3, §4, §5

[4] = 80 mg/kg i.p. once daily, at a tumor volume of 800 mm^3
[5] = female, nude, mouse, in vivo, 32 day

SMILES: CCC(=O)c1csc(C(=O)c2c[nH]c3ccccc23)n1 [ITK]
- TGD (Tumor Growth Delay) ([1]; at a tumor volume of 1,000 mm^3): 16 days
- TGI (Tumor Growth Inhibition) ([1]; day 28, TGI=ΔT/ΔC×100%): 51%
- net body weight loss ([2]; 80 mg/kg i.p. once daily): no obvious net body weight loss
- TGD (Tumor Growth Delay) [2, 4]: 26 days
- TGI (Tumor Growth Inhibition) ([2]; 80 mg/kg i.p. once daily, day 22, TGI=ΔT/ΔC×100%): 22%
- mice died [2, 5]: 1 out of 8
- net body weight loss ([3]; 80 mg/kg i.p. once daily): no obvious net body weight loss
- TGD (Tumor Growth Delay) [3, 4]: 13 days
- TGI (Tumor Growth Inhibition) ([3]; 80 mg/kg i.p. once daily, day 33, TGI=ΔT/ΔC×100%): 46%
- mice died [3, 5]: 1 out of 8

From patent US10632106B2, “Methods of cancer treatment with 2-(1′H-Indole-3′-carbonyl)-thiazole-4-carboxylic acid methyl ester” (Ariagen, Inc., priority 2009, dated 2020)
